Data reported in ChEMBL document CHEMBL4406824, “Phenolic N-monosubstituted carbamates: Antitubercular and toxicity evaluation of multi-targeting compounds” (Eur J Med Chem, 2019).
In brackets after ≈: the same amount, converted by molar mass.

Legend:
Mycobacterium avium [1] = experiment: Antimycobacterial activity against Mycobacterium avium 330/88 after 14 days; format: functional; conditions: 330/88, 336 h
[2] = system: Mycobacterium tuberculosis; format: functional; conditions: H37Rv 331/88, 504 h
[3] = system: Mycobacterium tuberculosis; format: functional; conditions: H37Rv 331/88, 336 h
Mycobacterium avium [4] = experiment: Antimycobacterial activity against Mycobacterium avium 330/88 after 21 days; format: functional; conditions: 330/88, 504 h
Mycobacterium kansasii [5] = experiment: Antimycobacterial activity against Mycobacterium kansasii 235/80 after 7 days; format: functional; conditions: 235/80, 168 h
Mycobacterium kansasii [6] = experiment: Antimycobacterial activity against Mycobacterium kansasii 235/80 after 14 days; format: functional; conditions: 235/80, 336 h
Mycobacterium kansasii [7] = experiment: Antimycobacterial activity against Mycobacterium kansasii 235/80 after 21 days; format: functional; conditions: 235/80, 504 h
Mycobacterium kansasii [8] = experiment: Antimycobacterial activity against Mycobacterium kansasii 6509/96 after 7 days; format: functional; conditions: 6509/96, 168 h
Mycobacterium kansasii [9] = experiment: Antimycobacterial activity against Mycobacterium kansasii 6509/96 after 14 days; format: functional; conditions: 6509/96, 336 h
Mycobacterium kansasii [10] = experiment: Antimycobacterial activity against Mycobacterium kansasii 6509/96 after 21 days; format: functional; conditions: 6509/96, 504 h
[11] = system: Mycobacterium tuberculosis; format: functional, H37Rv 331/88; parameters: reference not given here
Mycobacterium kansasii [12] = experiment: Potency index, ratio of p-aminosalicylic acid MIC to compound MIC for antimycobacterial activity against Mycobacterium kansasii 235/80; format: functional
Mycobacterium kansasii [13] = experiment: Potency index, ratio of p-aminosalicylic acid MIC to compound MIC for antimycobacterial activity against Mycobacterium kansasii 6509/96; format: functional
[14] = system: Mycobacterium tuberculosis; experiment: Antimycobacterial activity against Mycobacterium tuberculosis H37Ra ITM-M006710 after 48 hr by resazurin dye based microdilution method; format: functional; conditions: H37Ra ITM-M006710, 48 h
Mycolicibacterium aurum = experiment: Antimycobacterial activity against Mycobacterium aurum DSM 43999 after 72 hr by resazurin dye based microdilution method; format: functional; conditions: DSM 43999, 72 h
[15] = system: Mycolicibacterium smegmatis; experiment: Antimycobacterial activity against Mycobacterium smegmatis DSM 43465 after 120 hr by resazurin dye based microdilution method; format: functional; conditions: DSM 43465, 120 h
[16] = system: Mycobacterium tuberculosis H37Rv; experiment: Inhibition of recombinant Mycobacterium tuberculosis H37Rv ICL1 expressed in Escherichia coli BL21 (DE3) cells at 10 uM using (+)-potassium Ds-threo-isocitrate as substrate by glyoxylate phenyl hydrazone formation assay relative to control
HepG2 [17] = experiment: Cytotoxicity against human HepG2 cells assessed as reduction in cell viability after overnight incubation by MTT assay; format: cell-based
HepG2 [18] = experiment: Cytostatic activity against human HepG2 cells preincubated for overnight in serum free medium followed by compound wash out and further incubated for 72 hrs in presence of serum by MTT assay; format: ADME, cell-based
[19] = system: Mycobacterium tuberculosis; experiment: Antimycobacterial activity against XDR Mycobacterium tuberculosis Praha 131 after 14 days; format: functional; conditions: Praha 131, 336 h
[20] = system: Mycobacterium tuberculosis; experiment: Antimycobacterial activity against XDR Mycobacterium tuberculosis Praha 131 after 21 days; format: functional; conditions: Praha 131, 504 h
in vitro = conditions: human, HepG2 cells
Description: Selectivity index, ratio of IC50 for human HepG2 cells to MIC for antimycobacterial activity against Mycobacterium tuberculosis H37Rv

Row | Structure (SMILES) | MIC (Mycobacterium avium [1]) [µM] | MIC [2] [µM] | MIC [3] [µM] | MIC (Mycobacterium avium [4]) [µM] | MIC (Mycobacterium kansasii [5]) [µM] | MIC (Mycobacterium kansasii [6]) [µM] | MIC (Mycobacterium kansasii [7]) [µM] | MIC (Mycobacterium kansasii [8]) [µM] | MIC (Mycobacterium kansasii [9]) [µM] | MIC (Mycobacterium kansasii [10]) [µM] | Ratio [11] | Ratio (Mycobacterium kansasii [12]) | Ratio (Mycobacterium kansasii [13]) | MIC [14] | MIC (Mycolicibacterium aurum) | MIC [15] | inhibition [16] [%] | IC50 (HepG2 [17]) [µM] | IC50 (HepG2 [18]) [µM] | selectivity ratio (in vitro) | also measured
1 | O=C(NCCc1ccccc1)Oc1ccc(Cl)cc1C(=O)Nc1ccc(C(F)(F)F)cc1 | 8 (≈ 3.7 µg/mL) | 1 (≈ 0.463 µg/mL) | ≤ 0.5 | 8 (≈ 3.7 µg/mL) | 4 (≈ 1.85 µg/mL) | 4 (≈ 1.85 µg/mL) | 8 (≈ 3.7 µg/mL) | 2 (≈ 0.926 µg/mL) | 4 (≈ 1.85 µg/mL) | 4 (≈ 1.85 µg/mL) | >125 | >250 | >250 | 0.84 to 1.69 µM | ≤ 0.84 µM | ≤ 0.84 µM | 11 | > 125 | 1 | > 125 | MIC [19]: 2 µM (≈ 0.926 µg/mL); MIC [20]: 2 µM (≈ 0.926 µg/mL)
2 | O=C(NCCc1ccccc1)Oc1ccc(Cl)cc1C(=O)Nc1ccc(Cl)cc1 | 8 (≈ 3.43 µg/mL) | 16 (≈ 6.87 µg/mL) | 8 (≈ 3.43 µg/mL) | 8 (≈ 3.43 µg/mL) | 8 (≈ 3.43 µg/mL) | 8 (≈ 3.43 µg/mL) | 16 (≈ 6.87 µg/mL) | 4 (≈ 1.72 µg/mL) | 8 (≈ 3.43 µg/mL) | 8 (≈ 3.43 µg/mL) | >125 | >250 | >250 | 1.56 µg/mL | 1.56 µg/mL | 1.56 µg/mL | 10 | 15 | 5.1 | 1.9 | 
3 | O=C(NCc1ccccc1)Oc1ccc(Cl)cc1C(=O)Nc1ccc(F)cc1 | 62.5 (≈ 24.9 µg/mL) | 16 (≈ 6.38 µg/mL) | 8 (≈ 3.19 µg/mL) | 62.5 (≈ 24.9 µg/mL) | 16 (≈ 6.38 µg/mL) | 32 (≈ 12.8 µg/mL) | 32 (≈ 12.8 µg/mL) | 16 (≈ 6.38 µg/mL) | 32 (≈ 12.8 µg/mL) | 32 (≈ 12.8 µg/mL) | >125 | >250 | >250 | 3.12 µg/mL | 3.12 µg/mL | 3.12 µg/mL | 15 | > 125 | 34.1 | > 7.8 | 
4 | O=C(Nc1ccccc1)Oc1ccc(Cl)cc1C(=O)Nc1ccc(Cl)cc1 | 16 (≈ 6.42 µg/mL) | 16 (≈ 6.42 µg/mL) | 16 (≈ 6.42 µg/mL) | 16 (≈ 6.42 µg/mL) | 16 (≈ 6.42 µg/mL) | 32 (≈ 12.8 µg/mL) | 32 (≈ 12.8 µg/mL) | 8 (≈ 3.21 µg/mL) | 16 (≈ 6.42 µg/mL) | 16 (≈ 6.42 µg/mL) | >125 | >250 | >250 | 1.56 µg/mL | 1.56 µg/mL | 1.56 µg/mL | 10 | > 250 | 0.9 | > 15.6 | 
5 | O=C(NCc1ccccc1)Oc1ccc(Cl)cc1C(=O)Nc1ccc(C(F)(F)F)cc1 | 32 (≈ 14.4 µg/mL) | 4 (≈ 1.8 µg/mL) | 2 (≈ 0.898 µg/mL) | 32 (≈ 14.4 µg/mL) | 8 (≈ 3.59 µg/mL) | 16 (≈ 7.18 µg/mL) | 16 (≈ 7.18 µg/mL) | 8 (≈ 3.59 µg/mL) | 16 (≈ 7.18 µg/mL) | 16 (≈ 7.18 µg/mL) | >125 | >250 | >250 | ≤ 0.87 µM | ≤ 0.87 µM | 1.74 µM | 14 | > 125 | 3 | > 31.3 | 
6 | O=C(NC1CCCCC1)Oc1ccc(Cl)cc1C(=O)Nc1ccc(Cl)cc1 | 16 (≈ 6.52 µg/mL) | 16 (≈ 6.52 µg/mL) | 16 (≈ 6.52 µg/mL) | 16 (≈ 6.52 µg/mL) | 16 (≈ 6.52 µg/mL) | 32 (≈ 13 µg/mL) | 32 (≈ 13 µg/mL) | 8 (≈ 3.26 µg/mL) | 8 (≈ 3.26 µg/mL) | 8 (≈ 3.26 µg/mL) | >125 | >250 | >250 | 3.12 µg/mL | 1.56 µg/mL | 1.56 µg/mL | 13 | > 250 | 33.6 | > 15.6 | 
7 | O=C(NC12CC3CC(CC(C3)C1)C2)Oc1ccc(Cl)cc1C(=O)Nc1ccc(Br)cc1 | 8 (≈ 4.03 µg/mL) | 8 (≈ 4.03 µg/mL) | 8 (≈ 4.03 µg/mL) | 8 (≈ 4.03 µg/mL) | 4 (≈ 2.02 µg/mL) | 8 (≈ 4.03 µg/mL) | 8 (≈ 4.03 µg/mL) | 4 (≈ 2.02 µg/mL) | 8 (≈ 4.03 µg/mL) | 8 (≈ 4.03 µg/mL) | >125 | >250 | >250 | 1.56 µg/mL | 1.56 µg/mL | 3.12 µg/mL | 18 | 4.2 | 4.35 | 0.5 | 
8 | O=C(NC1CCCCC1)Oc1ccc(Cl)cc1C(=O)Nc1ccc(C(F)(F)F)cc1 | 8 (≈ 3.53 µg/mL) | 1 (≈ 0.441 µg/mL) | 1 (≈ 0.441 µg/mL) | 8 (≈ 3.53 µg/mL) | 4 (≈ 1.76 µg/mL) | 4 (≈ 1.76 µg/mL) | 8 (≈ 3.53 µg/mL) | 2 (≈ 0.882 µg/mL) | 4 (≈ 1.76 µg/mL) | 4 (≈ 1.76 µg/mL) | >125 | >250 | >250 | ≤ 0.88 µM | ≤ 0.88 µM | ≤ 0.88 µM | 14 | > 125 | 0.75 | > 125 | MIC [19]: 0.5 µM (≈ 0.22 µg/mL); MIC [20]: 1 µM (≈ 0.441 µg/mL)
9 | O=C(NC12CC3CC(CC(C3)C1)C2)Oc1ccc(Cl)cc1C(=O)Nc1ccc(F)cc1 | 32 (≈ 14.2 µg/mL) | 4 (≈ 1.77 µg/mL) | 4 (≈ 1.77 µg/mL) | 32 (≈ 14.2 µg/mL) | 8 (≈ 3.54 µg/mL) | 8 (≈ 3.54 µg/mL) | 16 (≈ 7.09 µg/mL) | 8 (≈ 3.54 µg/mL) | 8 (≈ 3.54 µg/mL) | 16 (≈ 7.09 µg/mL) | >125 | >250 | >250 | 2.24 µM | 1.98 µg/mL | 1.98 µg/mL | 14 | > 125 | > 125 | 31.3 | 
10 | O=C(Nc1ccccc1)Oc1ccc(Cl)cc1C(=O)Nc1ccc(Br)cc1 | 8 (≈ 3.57 µg/mL) | 16 (≈ 7.13 µg/mL) | 8 (≈ 3.57 µg/mL) | 16 (≈ 7.13 µg/mL) | 4 (≈ 1.78 µg/mL) | 8 (≈ 3.57 µg/mL) | 8 (≈ 3.57 µg/mL) | 4 (≈ 1.78 µg/mL) | 8 (≈ 3.57 µg/mL) | 8 (≈ 3.57 µg/mL) | >125 | >250 | >250 | 1.56 µg/mL | 1.56 µg/mL | 1.56 µg/mL | 17 | > 50 | 5.45 | > 6.3 | 
11 | O=C(NC12CC3CC(CC(C3)C1)C2)Oc1ccc(Cl)cc1C(=O)Nc1ccc(Cl)cc1 | 16 (≈ 7.35 µg/mL) | 16 (≈ 7.35 µg/mL) | 16 (≈ 7.35 µg/mL) | 16 (≈ 7.35 µg/mL) | 8 (≈ 3.67 µg/mL) | 16 (≈ 7.35 µg/mL) | 16 (≈ 7.35 µg/mL) | 8 (≈ 3.67 µg/mL) | 16 (≈ 7.35 µg/mL) | 16 (≈ 7.35 µg/mL) | >125 | >250 | >250 | 3.12 µg/mL | 3.91 µg/mL | 3.91 µg/mL | 11 | 24 | 8.15 | 1.5 | 
12 | O=C(NCc1ccccc1)Oc1ccc(Cl)cc1C(=O)Nc1ccc(Cl)cc1 | 8 (≈ 3.32 µg/mL) | 16 (≈ 6.64 µg/mL) | 16 (≈ 6.64 µg/mL) | 16 (≈ 6.64 µg/mL) | 8 (≈ 3.32 µg/mL) | 8 (≈ 3.32 µg/mL) | 16 (≈ 6.64 µg/mL) | 4 (≈ 1.66 µg/mL) | 8 (≈ 3.32 µg/mL) | 8 (≈ 3.32 µg/mL) | >125 | >250 | >250 | 1.56 µg/mL | 1.56 µg/mL | 1.56 µg/mL | 11 | > 250 | 6.4 | > 15.6 | 
13 | O=C(NC1CCCCC1)Oc1ccc(Cl)cc1C(=O)Nc1ccc(F)cc1 | 32 (≈ 12.5 µg/mL) | 8 (≈ 3.13 µg/mL) | 4 (≈ 1.56 µg/mL) | 32 (≈ 12.5 µg/mL) | 16 (≈ 6.25 µg/mL) | 32 (≈ 12.5 µg/mL) | 32 (≈ 12.5 µg/mL) | 16 (≈ 6.25 µg/mL) | 16 (≈ 6.25 µg/mL) | 32 (≈ 12.5 µg/mL) | >125 | >250 | >250 | 3.12 µg/mL | 1.56 µg/mL | 3.91 µg/mL | 18 | 21.2 | 8.6 | 2.7 to 5.3 | 
14 | O=C(NCCc1ccccc1)Oc1ccc(Cl)cc1C(=O)Nc1ccc(Br)cc1 | 8 (≈ 3.79 µg/mL) | 8 (≈ 3.79 µg/mL) | 8 (≈ 3.79 µg/mL) | 8 (≈ 3.79 µg/mL) | 4 (≈ 1.9 µg/mL) | 8 (≈ 3.79 µg/mL) | 8 (≈ 3.79 µg/mL) | 4 (≈ 1.9 µg/mL) | 8 (≈ 3.79 µg/mL) | 8 (≈ 3.79 µg/mL) | >125 | >250 | >250 | 1.65 µM | 1.56 µg/mL | 3.12 µg/mL | 17 | > 50 | 2.2 | > 6.3 | 
